Where “and” joins values, the source holds several entries; their conditions need not be identical. Identical values can stand only once.
Assay: Pharmacokinetics study after separate oral administration in rats (HPLC-MS of plasma)
Assay type: in vivo, Sprague-Dawley rats
Settings: for Plasma concentrations: individual rats NO. 1-5; for AUC(0-t) / Cmax / MRT(0-t) / Tmax / t1/2z / CLz/F: labelled substance = analyte, individual rats No1-No5
Procedure: A total of 15 SPF Sprague-Dawley rats (SD, male, 190–210 g) were provided by Sino-British Sippr/BK Lab Animal Company Ltd. (Shanghai, China). The rats were kept in standard conditions (22–26 °C; 40–60% relative humidity; 12 h light/dark cycle). Throughout the rearing period, the animals had access to food and water ad libitum. Animal experiments were conducted in accordance with the standard ethical guidelines of the Laboratory Animal Management Committee of Jiangsu Province (SYXK (SU) 2016-0011).
Following 1 week of adaptation, the rats were fasted for about 12 h before dosing, with free access to water. […] After administration of the first dose, blood samples were taken from the retro-orbital vein at 0, 5, 15, 30, 60, 90, 120, 180, 240, 360, 480, and 1,440 min and collected in heparinized tubes. The samples were centrifuged at 3,500 rpm for 10 min at 4 °C and the plasma was stored at −80 °C until analysis.
An Agilent 1,200 series HPLC system (Agilent Technologies, Waldbronn, Germany) equipped with a quaternary pump on-line degasser, auto-sampler and column oven, and an SL G1946D quadruple mass spectrometer (Agilent Technologies, Santa Clara, CA, USA) equipped with an electrospray ionization (ESI) source, were used for separation and detection. Data were acquired and analyzed using Agilent ChemStation Software Version A.01.00 (Agilent Technologies, Santa Clara, CA, USA).
The separation was carried out with an Amethyst C18-H column (150 × 4.6 mm, 5 μm, Sepax Technologies, Newark, DE, USA) with a guard column SB-C18 (10 × 4.6 mm, 5 μm, Phenomenex Technologies, Torrance, USA) at a constant temperature of 25 °C.
The mass spectra were acquired using ESI interfaced to a single quadrupole mass spectrometer. The ionization conditions were as follows: drying gas (N2) flow rate of 11 L/min, drying gas temperature of 350 °C, nebulizing gas (N2) pressure of 35 psi, capillary voltage of 3,500 V, quad temperature of 100 °C, and fragment voltage of 110 V. A series of m/z were monitored using a timed program according to the retention times and characteristic ions for the corresponding HPLC-MS peak obtained by scanning from m/z 100–1,000 in the standard sample.
Briefly, an aliquot of plasma sample (100 μL) was spiked with 5% formic acid (10 μL) in centrifuge tube. Subsequently, hydrochloric acid (2 mol/L, 10 μL) and IS solution (960.00 ng/mL, 20 μL) were added. Then ethyl acetate/n-butyl alcohol (1:1 v/v; 1,000 μL) was used to extract the components. The samples were then homogenized by vortex mixing and centrifuged for 10 min at 14,000 rpm. After centrifugation, 800 μL of supernatant was transferred to another centrifuge tube and the sample was evaporated to dryness. The residues were dissolved in 100 μL of methanol and centrifuged for 10 min at 12,000 rpm. 50 μL of the supernatant was transferred to the vial and an aliquot of 5 μL was injected into the HPLC-MS system for analysis.
DAS 2.0 (Chinese Pharmacological Association, Shanghai, China) was used to calculate the pharmacokinetic parameters using the non-compartment model, including the area under curve (AUC), mean residence time (MRT), half-life ( t1/2z), clearance rate (CL), maximum plasma concentration (Cmax), and time (Tmax). All results are expressed as mean ± standard deviation (SD). One way analysis of variance followed by […] was used for comparison of different groups using Graph pad prism 5 software. A p-value of <0.05 was considered statistically significant.

[1] = IQ group (oral IQ 50 mg/kg), rat plasma
[2] = QG group (oral QG 50 mg/kg), rat plasma
[3] = Qr group (oral Qr 50 mg/kg), rat plasma

Plasma concentrations (IQ group (oral IQ 50 mg/kg), 5 min): 0.7646 µg/mL and 1.0569 µg/mL
Tmax [1]: 30 min
Detection in rat plasma (IQ group: oral IQ 50 mg/kg): measured
Detection in rat plasma (QG group: oral QG 50 mg/kg): could be detected in rat plasma
CL (QG group: oral QG 50 mg/kg, rat plasma, mean ± SD, n = 5): 71 ± 57 mL/min/kg
Tmax [3]: 30 min and 60 min (2×)
Detection in rat plasma (Qr group: oral Qr 50 mg/kg): detected
Structure (SMILES): O=C(O)[C@H]1O[C@@H](Oc2c(-c3ccc(O)c(O)c3)oc3cc(O)cc(O)c3c2=O)[C@H](O)[C@@H](O)[C@@H]1O [QG, Quercetin-3-O-β-D-glucuronide]
Plasma concentrations (IQ group (oral IQ 50 mg/kg), 120 min): 0.6158 µg/mL and 0.5082 µg/mL and 0.7807 µg/mL and 0.6334 µg/mL
Plasma concentrations (IQ group (oral IQ 50 mg/kg), 180 min): 0.8736 µg/mL and 0.5334 µg/mL and 0.3826 µg/mL and 0.3965 µg/mL and 0.7922 µg/mL
Plasma concentrations (IQ group (oral IQ 50 mg/kg), 240 min): 0.2228 µg/mL and 0.5709 µg/mL and 0.5714 µg/mL and 0.4349 µg/mL and 0.8190 µg/mL
Plasma concentrations (IQ group (oral IQ 50 mg/kg), 360 min): 0.1194 µg/mL and 0.8107 µg/mL and 0.4137 µg/mL and 0.6925 µg/mL and 0.8505 µg/mL
Plasma concentrations (IQ group (oral IQ 50 mg/kg), 480 min): 0.4225 µg/mL and 0.4165 µg/mL and 0.1673 µg/mL and 0.2461 µg/mL and 0.7377 µg/mL
Plasma concentrations (IQ group (oral IQ 50 mg/kg), 1440 min): 0.0935 µg/mL and 0.0847 µg/mL and 0.0809 µg/mL and 0.0651 µg/mL and 0.3494 µg/mL
AUC(0-t) [1]: 597.432 mg·min/L and 994.801 mg·min/L and 564.315 mg·min/L and 660.84 mg·min/L
Cmax [1]: 4534 ng/mL and 5953 ng/mL and 2825 ng/mL and 2800 ng/mL and 3414 ng/mL
MRT(0-t) [1]: 4.64393 h and 8.49298 h and 6.06248 h and 5.82378 h
t1/2z [1]: 7.29975 h and 8.1253 h and 14.3264 h and 6.69975 h and 7.17603 h
Plasma concentrations (QG group (oral QG 50 mg/kg), 5 min): 0.0814 µg/mL and 0.1791 µg/mL and 0.1562 µg/mL and 0.4345 µg/mL and 0.2229 µg/mL
Plasma concentrations (QG group (oral QG 50 mg/kg), 120 min): 0.0799 µg/mL and 0.2388 µg/mL and 0.5950 µg/mL and 0.1120 µg/mL and 0.2189 µg/mL
Plasma concentrations (QG group (oral QG 50 mg/kg), 180 min): 0.7950 µg/mL and 1.4327 µg/mL and 2.4032 µg/mL and 0.2061 µg/mL and 1.3248 µg/mL
Plasma concentrations (QG group (oral QG 50 mg/kg), 240 min): 1.3178 µg/mL and 2.6305 µg/mL and 2.4984 µg/mL and 0.6490 µg/mL and 1.6470 µg/mL
Plasma concentrations (QG group (oral QG 50 mg/kg), 360 min): 0.1076 µg/mL and 2.2429 µg/mL and 3.2289 µg/mL and 1.3605 µg/mL and 1.5082 µg/mL
Plasma concentrations (QG group (oral QG 50 mg/kg), 480 min): 0.0874 µg/mL and 0.7211 µg/mL and 1.7586 µg/mL and 0.4951 µg/mL and 0.6594 µg/mL
Plasma concentrations (QG group (oral QG 50 mg/kg), 1440 min): 0.0575 µg/mL and 0.2816 µg/mL and 0.1651 µg/mL and 0.1404 µg/mL and 0.1134 µg/mL
AUC(0-t) [2]: 268.635 mg·min/L and 1176.18 mg·min/L and 1861.7 mg·min/L and 635.402 mg·min/L and 871.691 mg·min/L
CLz/F [2]: 0.17 L/min/kg and 0.038 L/min/kg and 0.026 L/min/kg and 0.067 L/min/kg and 0.054 L/min/kg
Cmax [2]: 1318 ng/mL and 2631 ng/mL and 3229 ng/mL and 1365 ng/mL and 1647 ng/mL
MRT(0-t) [2]: 7.8607 h and 7.11965 h and 7.95713 h and 7.028 h
t1/2z [2]: 6.12582 h and 5.27942 h and 8.9772 h and 6.00847 h
Plasma concentrations (Qr group (oral Qr 50 mg/kg), 5 min): 0.3755 µg/mL and 1.9735 µg/mL and 1.3717 µg/mL and 1.2834 µg/mL
Plasma concentrations (Qr group (oral Qr 50 mg/kg), 120 min): 1.6399 µg/mL and 0.4649 µg/mL and 2.4126 µg/mL and 2.1713 µg/mL and 0.6055 µg/mL
Plasma concentrations (Qr group (oral Qr 50 mg/kg), 180 min): 1.1714 µg/mL and 0.4542 µg/mL and 1.7560 µg/mL and 4.1932 µg/mL and 1.1826 µg/mL
Plasma concentrations (Qr group (oral Qr 50 mg/kg), 240 min): 1.0033 µg/mL and 1.3275 µg/mL and 1.0605 µg/mL and 1.9477 µg/mL and 0.8307 µg/mL
Plasma concentrations (Qr group (oral Qr 50 mg/kg), 360 min): 1.0844 µg/mL and 1.0457 µg/mL and 0.9781 µg/mL and 1.2903 µg/mL and 0.5532 µg/mL
Plasma concentrations (Qr group (oral Qr 50 mg/kg), 480 min): 0.9932 µg/mL and 0.4529 µg/mL and 0.7247 µg/mL and 0.7786 µg/mL and 0.5843 µg/mL
Plasma concentrations (Qr group (oral Qr 50 mg/kg), 1440 min): 0.1552 μg/mL and 0.4031 μg/mL and 0.5308 μg/mL and 0.0000 μg/mL (2×)
AUC(0-t) [3]: 1269.04 mg·min/L and 1058.23 mg·min/L and 1705.01 mg·min/L and 1261.98 mg·min/L and 455.81 mg·min/L
CLz/F [3]: 0.037 L/min/kg and 0.034 L/min/kg (2×) and 0.019 L/min/kg and 0.093 L/min/kg
Cmax [3]: 4415 ng/mL and 6941.3 ng/mL and 9165 ng/mL and 9211 ng/mL and 2540 ng/mL
MRT(0-t) [3]: 6.1781 h and 7.68988 h and 6.69422 h and 2.72245 h and 3.04182 h
t1/2z [3]: 7.30138 h and 12.1634 h and 20.1775 h and 3.02307 h and 2.81598 h

Reference: paper PMC6440464 (PeerJ, 2019)
